Test system: PBMCs of ten HLA-A2+ healthy subjects
Assay: In vitro stimulation of peptide-specific T cells in PBMCs of healthy subjects, IFN-γ release by ELISA
Type: cell-based, human
Details: PBMCs stimulated 14 days with peptide 20 μg/mL, response to T2 cells pre-loaded with peptide 5 μg/mL
Procedure: Ten HLA-A2+ prostate cancer patients and ten HLA-A2+ healthy subjects were enrolled in this study after written informed consent was obtained. All protocols were approved by the Institutional Review Board (IRB) of Baylor College of Medicine before commencing studies. 20 mL of peripheral blood was obtained from each person, and peripheral blood mononuclear cells (PBMCs) were isolated by density gradient centrifugation using Lymphoprep (Nycomed Pharma AS; Oslo, Norway). The freshly isolated PBMCs were cryopreserved for later use in 1 mL freezing medium containing 90% FCS and 10% dimethyl sulfoxide (DMSO) at −140° C. The expression of HLA-A2 molecules on PBMCs obtained from cancer patients and healthy subjects was verified by flow cytometry with FITC-labeled HLA-A2 mAb BB7.2 (BD Pharmingen, San Diego, Calif., USA).
PBMCs (1×10^5 cells/well) from either healthy subjects or prostate cancer patients were incubated with standard peptide concentrations of 20 μg/mL per peptide in 96-well U-bottom microplates (BD, Franklin Lakes, N.J., USA) in 200 μL of T-cell medium (TCM), consisting of RPMI 1640 (Mediatech, Manassas, Va., USA), 10% human AB serum (Valley Biomedical, Winchester, USA), 50 μM of 2-mercaptoethanol, 100 U/mL of interleukin-2 (IL-2), and 0.1 mM MEM nonessential amino acid solution (Invitrogen, Grand Island, N.Y., USA). Half of the TCM was removed and replaced with fresh TCM containing peptides (20 μg/mL) every 5 days. After 14 days of culture, the cells were harvested and tested for their ability to produce IFN-γ in response to T2 cells (1×10^4 cells/well), which were pre-loaded with either PSGR peptide (5 μg/mL) or a control peptide (an irrelevant HL-A2 binding peptide: NLLTHVESL) as a negative control. After 18 hours of incubation, supernatants were collected, and IFN-γ release was determined by ELISA assay.
Cytokine release was measured by coating 96-well ELISA plates (Thermo Fisher Scientific; Rochester, N.Y., USA) with 1 μg/mL anti-human IFN-γ (Pierce Biotechnology; Rockford, Ill., USA) overnight at 4° C. The plate was washed six times with PBS containing 0.05% Tween-20 (wash solution) to remove unbound coating antibody, and blocked with 1% BSA/PBS at room temperature for 2 hrs. Afterwards, 50 μL supernatant was added to each well and incubated at room temperature for 1 hr, then 50 μL of 0.5 μg/mL biotinylated anti-human IFN-γ (Pierce Biotechnology; Rockford, Ill., USA) was added and plates were incubated for an additional 1 hr at room temperature. After incubation, plates were washed and incubated for 30 min with Poly-HRP-Streptavidin (Thermo Fisher Scientific; Rochester, N.Y., USA) diluted 1:5000 in PBS/1% BSA. Plates were washed and 100 μL of TMB substrate solution (Sigma-Aldrich Co.; St. Louis, Mo., USA) was added per well. The colorimetric reaction was stopped using 2N H2SO4 and plates were read at 450 nm using an ELISA plate reader.
To determine whether PSGR-reactive T cell precursors are present in healthy subjects, we obtained PBMCs from 10 HLA-A2+ healthy donors and stimulated them in vitro with each of the 21 PSGR-derived peptides containing HLA-A2-binding motif (Table 1). After 2 weeks of peptide stimulation, supernatants from peptide-stimulated T cells were analyzed by ELISA assay to detect IFN-γ release in response to T2 cells pulsed with or without corresponding peptides.

Sequence | concentrations of IFN-γ in the supernatants (healthy subject #1) | concentrations of IFN-γ in the supernatants (healthy subject #2) | concentrations of IFN-γ in the supernatants (healthy subject #3) | concentrations of IFN-γ in the supernatants (healthy subject #4) | concentrations of IFN-γ in the supernatants (healthy subject #5) | concentrations of IFN-γ in the supernatants (healthy subject #6)
ALMAPLPVFI (PSGR13) | 0 pg/mL | 0 pg/mL | 0 pg/mL | 0 pg/mL | 0 pg/mL | 0 pg/mL
CLHQDVMKL [PSGR7] | 0 pg/mL | 0 pg/mL | 0 pg/mL | 0 pg/mL | 168 pg/mL | 0 pg/mL
CMLSGIDILI (PSGR17) | 0 pg/mL | 0 pg/mL | 0 pg/mL | 0 pg/mL | 0 pg/mL | 0 pg/mL
FIFYVPFIGL (PSGR22) | 289 pg/mL | 0 pg/mL | 0 pg/mL | 0 pg/mL | 0 pg/mL | 0 pg/mL
GLEEAQFWLA (PSGR12) | 0 pg/mL | 139 pg/mL | 0 pg/mL | 246 pg/mL | 0 pg/mL | 432 pg/mL
HVCAVFIFYV (PSGR11) | 0 pg/mL | 0 pg/mL | 0 pg/mL | 0 pg/mL | 0 pg/mL | 0 pg/mL
KLACDDIRV (PSGR2) | 0 pg/mL | 0 pg/mL | 455 pg/mL | 0 pg/mL | 0 pg/mL | 0 pg/mL
LLAMAFDRYV (PSGR20) | 0 pg/mL | 0 pg/mL | 0 pg/mL | 0 pg/mL | 0 pg/mL | 0 pg/mL
LLILKTVLGL (PSGR15) | 0 pg/mL | 0 pg/mL | 456 pg/mL | 0 pg/mL | 0 pg/mL | 0 pg/mL
LLQMFAIHSL (PSGR18) | 176 pg/mL | 0 pg/mL | 0 pg/mL | 0 pg/mL | 0 pg/mL | 0 pg/mL
SLHEPMYIFL (PSGR19) | 0 pg/mL | 0 pg/mL | 0 pg/mL | 0 pg/mL | 195 pg/mL | 0 pg/mL
SLLISFSYLL (PSGR10) | 917 pg/mL | 0 pg/mL | 0 pg/mL | 0 pg/mL | 0 pg/mL | 0 pg/mL
TLPRVTKIGV (PSGR23) | 0 pg/mL | 0 pg/mL | 0 pg/mL | 0 pg/mL | 0 pg/mL | 0 pg/mL
VLGNLTIIYI (PSGR21) | 0 pg/mL | 291 pg/mL | 0 pg/mL | 0 pg/mL | 300 pg/mL | 377 pg/mL
VLNPIVYGV (PSGR1) | 195 pg/mL | 0 pg/mL | 0 pg/mL | 0 pg/mL | 0 pg/mL | 281 pg/mL
YLIAVLGNLT (PSGR16) | 602 pg/mL | 0 pg/mL | 0 pg/mL | 0 pg/mL | 163 pg/mL | 0 pg/mL
YLLILKTVL (PSGR5) | 0 pg/mL | 0 pg/mL | 0 pg/mL | 0 pg/mL | 0 pg/mL | 0 pg/mL
YVPFIGLSMV (PSGR24) | 0 pg/mL | 0 pg/mL | 0 pg/mL | 0 pg/mL | 0 pg/mL | 0 pg/mL

— US10722563B2, “Prostate-specific tumor antigens and uses thereof” (SHENZHEN INNOVATION IMMUNOTECHNOLOGY CO., LTD., priority 2012, dated 2020)
